Results as given in patent publication US12612392B2, “Compound, pharmaceutical compositions containing same, synthesis method therefor and use thereof” (SHENZHEN ZHONGGE BIOLOGICAL TECHNOLOGY CO., LTD., priority 2022, dated 2026).
pEC50: −log10 of the molar value.

Tested on: mouse models
Assay: not given
Details: cited from earlier work

In the case of `O=C(COc1ccc(Cl)cc1)NC1CCC(NC(=O)COc2ccc(Cl)cc2)CC1` (stereo not drawn) [ISRIB], the “long-term memory in mouse models” value is listed as “improve long-term memory”.

Tested on: not listed separately
Assay: Cell membrane permeability (A to B / B to A, efflux ratio)
Format: in vitro ADME
Details: not given
Description: The test compounds were diluted from 10 mM stock solutions to a concentration of 10 μM using the transport buffer (HBSS+BSA) and applied to the apical or basolateral side of the cell monolayer. After the incubation at 37° C., 5% CO2 and 95% relative humidity for 120 minutes, the permeability of the test compounds in the A to B direction or the B to A direction was tested in duplicate. In addition, the efflux ratio of each compound was determined. The test substances and reference substances were quantitatively analyzed by the LC-MS/MS method based on the analyte/IS peak area ratio.

In the case of `C[C@H]1O[C@@H](O[C@H]2[C@@H](O)C[C@H](O[C@H]3[C@@H](O)C[C@H](O[C@H]4CC[C@@]5(C)[C@H](CC[C@@H]6[C@@H]5C[C@@H](O)[C@]5(C)[C@@H](C7=CC(=O)OC7)CC[C@]65O)C4)O[C@@H]3C)O[C@@H]2C)C[C@H](O)[C@@H]1O` [Digoxin, reference compound], the efflux ratio at 120 min, 10 µM was 44.1.

Tested on: healthy participants
Assay: not given
Details: Phase 1, healthy participants; cited from earlier work

In the case of `O=C(COc1ccc(Cl)cc1)NC12CC(c3nnc([C@H]4C[C@@H](OC(F)(F)F)C4)o3)(C1)C2` [DNL-343], the safety and tolerability is given as “demonstrated its safety and tolerability”.

Tested on: HEK293T/17-ATF4 uORF-Luc-Puro monoclonal cells
Assay: Cell activity test: ATF4 luciferase reporter, thapsigargin-induced stress
Format: cell-based
Details: Homo sapiens, HEK-293T; ATF4 reporter expression, 50 nM thapsigargin, 6 hours
Text: The ATF4 luciferase reporter plasmid consists of two parts, i.e., the 5′ untranslated region sequence of the ATF4 gene and the luciferase coding sequence. Specifically, the ATF4 5′ untranslated region sequence (NCBI database number BC022088.2) containing two upstream open reading frames (uORFs), and the firefly luciferase encoding gene were cloned into the pLVX-Puro vector (YouBio, VT1465). The lentivirus packaging plasmids were psPAX2 (YouBio, VT1444) and pMD2.G (YouBio, VT1443). HEK293T/17 cells were transfected with the above three plasmids simultaneously using X-tremeGENE 9 DNA transfection reagent, and after 48 hours, a culture medium containing lentivirus was collected. HEK293T/17 cells transduced with the virus were screened with 1 μg/mL puromycin, and then monoclonal cells were obtained by limiting dilution.
By using this cell line and the cold fluorescence readings, the translational regulation of ATF4 can be detected, and the activity of the eIF2B activator can be tested. The specific experimental process is as follows: 6000 HEK293T/17-ATF4 uORF-Luc-Puro monoclonal cells were plated in a 384-well plate and allowed to adhere overnight. The test compounds were dissolved in DMSO and added together with 50 nM thapsigargin to the cell culture medium and incubated for 6 hours, wherein the thapsigargin was used to cause cellular stress and upregulate the protein translation of ATF4. Six hours after the addition, the cells were lysed using the One-Glo Luciferase Assay Kit (Promega #E6120), and then the cold fluorescence values were read using the LUM program of the EnVision 2104 plate reader.
The ATF4 reporter expression % was calculated as follows:
[formula] • ave_vc: average signal value of negative control • ave_pc: average signal value of positive control • ave_sample: average signal value of sample
The dose-response curves were fitted, and the EC50 values were calculated.
The nonlinear regression log (inhibitor) vs. response—variable slope (four parameters) method of GraphPad 9 software was used to fit the corresponding relationship between the ATF4 reporter expression % and the compound concentration.
X-axis: log value of compound concentration; Y-axis: ATF4 reporter expression %; Top: evaluation of upper asymptote of curve; Bottom: evaluation of lower asymptote of curve; Hillslope: slope of the fitted curve.

First: O=C(COc1ccc(Cl)cc1F)N[C@H]1CC[C@H](c2nnc(N3CC(OC(F)(F)F)C3)o2)CC1 [Compound 33]
Second: Nc1cc(Cl)ccc1OCC(=O)N[C@H]1CC[C@H](c2nnc(N3CC(OC(F)(F)F)C3)o2)CC1 [Compound 52]
The pEC50 of the first is higher: 8.00 to 9.00 for the first, under 7.00 for the second. The first is the more potent here.

First: O=C(N[C@H]1CC[C@H](c2nnc(N3CC(OC(F)(F)F)C3)o2)CC1)c1cc(Cl)c[nH]1 [Compound 43]
Second: O=C(N[C@H]1CC[C@H](c2nnc(N3CC(OC(F)(F)F)C3)o2)CC1)c1nc(Cl)c[nH]1 [Compound 41]
The pEC50 of the first is higher: 7.00 to 8.00 for the first, under 7.00 for the second. The first is the more potent here.

`O=C(COc1ccc(F)cc1Cl)N[C@H]1CC[C@H](c2nnc(N3CC(OC(F)(F)F)C3)o2)CC1` [Compound 31] and `O=C(COc1ccc(F)cc1F)N[C@H]1CC[C@H](c2nnc(N3CC(OC(F)(F)F)C3)o2)CC1` [Compound 30] cannot be ordered by pEC50: under 7.00 for the first, under 7.00 for the second.

First: C[C@@H]1[C@H](OC(F)(F)F)CN1c1nnc([C@H]2CC[C@H](NC(=O)COc3ccc(Cl)c(F)c3)CC2)o1 [Compound 51-2]
Second: C[C@@H]1[C@@H](OC(F)(F)F)CN1c1nnc([C@H]2CC[C@H](NC(=O)COc3ccc(Cl)c(F)c3)CC2)o1 [Compound 51-1]
The pEC50 of the first is lower: under 7.00 for the first, 7.00 to 8.00 for the second. The second is the more potent here.

`O=C(COc1ccc(Cl)c(F)c1)N[C@@H]1CC[C@@H](c2nnc(N3CC(OC(F)(F)F)C3)o2)OC1` [Compound 16] and `O=C(COc1ccc(Cl)c(F)c1)N[C@H]1CC[C@H](c2nnc(N3CC(OC(F)(F)F)C3)o2)C[C@H]1O` [Compound 86] fall in the same range of pEC50: 8.00 to 9.00 for the first, 8.00 to 9.00 for the second.

`O=C(COc1cc(F)c(Cl)cc1F)N[C@H]1CC[C@H](c2nnc(N3CC(OC(F)(F)F)C3)o2)CC1` [Compound 48] and `O=C(COc1ccc(Cl)c(F)c1F)N[C@H]1CC[C@H](c2nnc(N3CC(OC(F)(F)F)C3)o2)CC1` [Compound 50] fall in the same range of pEC50: 8.00 to 9.00 for the first, 8.00 to 9.00 for the second.

`O=C(COc1ccc(Cl)c(Cl)c1)N[C@H]1CC[C@H](c2nnc(N3CC(OC(F)(F)F)C3)o2)CC1` [Compound 28] and `O=C(COc1ccc(Cl)cc1)N[C@H]1CC[C@H](c2nnc(N3CC(OC(F)(F)F)C3)o2)CC1` [Compound 15] cannot be ordered by pEC50: over 9.00 for the first, over 9.00 for the second.

First: O=C(COc1ccc(Cl)c(F)c1)NC12CCC(c3nnc(N4CC(OC(F)(F)F)C4)o3)(CC1)CC2 [Compound 3]
Second: CP(C)(=O)C1CN(c2nnc(C34CCC(NC(=O)COc5ccc(Cl)c(F)c5)(CC3)CC4)o2)C1 [Compound 9]
The pEC50 of the first is higher: 8.00 to 9.00 for the first, under 7.00 for the second. The first is the more potent here.

`O=C(COc1ccc(Cl)cn1)N[C@H]1CC[C@H](c2nnc(N3CC(OC(F)(F)F)C3)o2)CC1` [Compound 18] and `O=C(COc1ccc(F)cc1)N[C@H]1CC[C@H](c2nnc(N3CC(OC(F)(F)F)C3)o2)CC1` [Compound 21] fall in the same range of pEC50: 7.00 to 8.00 for the first, 7.00 to 8.00 for the second.

Work on `COC1CN(c2nnc(C3CCC(NC(=O)COc4ccc(Cl)c(F)c4)CC3)o2)C1` (stereo not drawn) [Compound 2] yielded a pEC50 of 7.00 to 8.00.

Tested on: model animals
Assay: not given
Details: oral administration for three days; cited from earlier work

For `NC(CO)(CO)CO.O=C(COc1ccc(Cl)c(F)c1)NC12CCC(NC(=O)COc3ccc(Cl)c(F)c3)(CC1)[C@@H](OCOP(=O)([O-])O)C2.[Na+]` [ABBV-CLS-7262], the “brain function of model animals” value is listed as “restored to youthful levels”.

Tested on: not listed separately
Assay: In vitro liver microsome stability
Format: in vitro ADME
Details: liver microsomes, NADPH, 37° C.
Description: A 5 mM MgCl2 100 mM K-Mg buffer solution was pre-heated. 5 μL of a 10 mM compound and a reference stock solution were added to 95 μL of acetonitrile (ACN) to prepare a spiked solution. 1.5 μL of a 500 µM spiked solution and 18.75 μL of 20 mg/mL liver microsomes were added to 479.8 μL of the K-Mg buffer solution. NADPH was dissolved in the K-Mg-buffer solution to prepare an NADPH stock solution ([…]). At different time points (0, 5, 15, 30 and 45 minutes), 30 μL of a 1.5 μM spiked solution containing the microsomes was evenly dropped into an assay plate. The plate was preincubated at 37° C. for 5 minutes. At 0 min, 200 μL of ACN containing IS (internal standard, tolbutamid/terfenadine) was added to the wells, and then 15 μl of the NADPH stock solution (6 mM) was added. For other time points, 15 μL of the NADPH stock solution (6 mM) was added to the wells to initiate the reaction and start the timing. At 5, 15, 30 and 45 min, the reaction was stopped by adding 200 μL of ACN containing IS to the corresponding wells of the plate. After quenching, the plate was shaken at 600 rpm for 10 minutes and then centrifuged at 4000 rpm for 50 minutes. 80 μL of the supernatant from each well was transferred to a 96-well sample plate containing 160 μL of pure water for UPLC/MS/MS analysis.

For `O=C(c1ccc(F)cc1)C1CCN(CCn2c(=O)[nH]c3ccccc3c2=O)CC1` [Ketanserin, reference compound], the half-life at 1 µM was 36.8 min.
